Reference: patent publication US5763430A, “Method of treating a viral infection by administering a steroid compound” (priority 1995, dated 1998)
Values after ≈ are worked out from the molar mass of the structure shown.

Assays:
[1] = system: chick embryo vitelline capillaries; test: chick embryo vitelline capillary regression assay; format: in vivo; conditions: for relative activity: Table 5
Protocol: Using the chick embryo vitelline capillaries assay, compounds were tested for their ability to induce capillary regression. Each compound was applied in 0.1 ml of 15% Ficol 400 and PBS onto the embryo, and vascular regression was assessed after 60 minutes.
The 3-day chick embryo consists of an embryonic disc from which numerous vessels emerge and return, forming a "FIG. 8"-shaped structure--the embryo in the center with vascular loops extending outward over both poles. […] Following a lag period of around 15 minutes, the constriction of continuity between capillary and secondary vessels, generally on the "venous" side, was observed. Continued pulsatile blood flow progressed, resulting in a "swelling" of the blind tube, followed by a pinching off of the remaining connection and formation of an enclosed vascular sac resembling a "blood island." This process progressed until only the largest vessels remained intact.

C. albicans = test: antibiotic activity (MIC); format: cell-based; conditions: Candida albicans; C. albicans; read-out: MIC
Excerpt: (§1) Thus, it is possible to achieve an antimicrobial steroid with or without squalamine-like pharmacological activity.

E. coli = test: antibiotic activity (MIC); format: cell-based; conditions: Escherichia coli; E. coli; read-out: MIC
Excerpt: as §1

S. aureus = test: antibiotic activity (MIC); format: cell-based; conditions: Staphylococcus aureus; S. aureus; read-out: MIC
Excerpt: as §1

[2] = system: stage 59-60 Xenopus tadpole; test: Xenopus tadpole assay; conditions: for tadpole response: 10 μg/ml, about 1 hour; for similarity of pharmacologic activity in tadpole assay: in vivo
[3] = system: L1210 lymphoblastic leukemia cells; test: mouse model of leukemia; format: in vivo
Excerpt: C57B mice were inoculated with L1210 lymphoblastic leukemia cells at an inoculum that causes leukemia in 100% of animals.

[4] = effect on arterial resistance in the rat; format: in vivo; conditions: 40 μg noradrenaline, 30 minutes after compound 1436
Protocol: A 200-g rat was catheterized in the right carotid artery, and the compound was introduced over a ten-second period to a total dosage of 5 mg/kg. Within 30 seconds, the mean arterial pressure had fallen from about 100 mm Hg to about 70 mm Hg, with a marked reduction in pulse pressure from about 40 mm to about 10 mm. […] If cardiac output was basically unaffected, reduction in blood pressure would have resulted principally from a reduction in system resistance.
At that time, 40 μg of noradrenaline was introduced.

P. aerug = test: antibiotic activity (MIC); format: cell-based; conditions: P. aerug; read-out: MIC
Excerpt: as §1

[5] = system: human microvascular cells; test: inhibition of endothelial cell cord formation in vitro; format: cell-based; conditions: for minimal effective concentration: Homo sapiens, Endothelial cell, Table II, read-out: Minimum Effective Concentration, Cord Formation; on effect on endothelial cord formation: key: +: Inhibition of angiogenesis; -: No inhibition of angiogenesis; Toxic; *: cell rounding @ 10 µg/ml
Excerpt: Endothelial cells have the capacity in vitro to form tubular aggregates resembling capillaries in various early stages of formation. This conversion occurs under relatively specific conditions, in which essential growth factors along with an effective substratum are provided. It has been shown that both the interaction of growth factors with the endothelial cell and its attachment to a substratum activate the NHE. The activation of this exchanger is believed to be required for subsequent morphologic transformation of the endothelial cell into a multicellular tubular structure.
To assess the effect of compounds on the cord-like structures formed by human microvascular cells when plated in the presence of VEGF (Vascular Endothelial Growth Factor) and basic fibroblast growth factor on a collagen matrix, a standard cord formation assay was used.

B16 melanoma = test: suppression of growth of B16 melanoma in C57B mice; format: in vivo, mouse; conditions: subcutaneous, C57B mice, FIG. 6
Protocol: The growth of B16 melanoma in C57B mice is dependent upon neovascularization.
Using the growth of B16 melanoma cells in C57B mice, a recognized model for the evaluation of inhibitors of angiogenesis on the growth of cancers, the effects of subcutaneous, intraperitoneal and oral administration of squalamine were evaluated.
Based on the idea that tumor growth involves both the clonal expansion of a malignant cell along with the development of a supporting vascular supply, a combination of compound 1436 with squalamine was tested to determine whether it would achieve a synergistic effect on solid tumor growth. This concept was evaluated in the B16 melanoma model.
Animals were implanted with B16 melanoma followed by treatment with compound 1436 or 1256 administered in a combined schedule or separately. […] Thus, a combination of these two compounds achieves a therapeutic benefit in tumors dependent on neovascularization that may prevent metastatic spread.

NHE = test: comparison of compound 319 with squalamine through the assays
Excerpt: Moreover, other aminosterols have shown anti-angiogenic activity. Compounds were subjected to a various assays, including the chick embryo capillary regression assay, the tadpole assay, the assay for inhibition of endothelial cord formation, and the assay for direct inhibition of NHE, as described above, to determine their utilities. As evident from the above data, correlation among the results from the chick, tadpole and in vitro inhibition of endothelial cell cord formation assays is excellent.
Through the application of these assays, compound 319 emerged as an attractive alternative to squalamine. […] Further properties of compound 319 are discussed below.

SMILES | MIC (C. albicans) [µg/mL] | MIC (E. coli) [µg/mL] | MIC (S. aureus) [µg/mL] | MIC (P. aerug) [µg/mL] | similarity of pharmacologic activity in tadpole assay [2] | effect on endothelial cord formation ([5]; 1.0 μg/ml) | effect on endothelial cord formation ([5]; 10.0 μg/ml) | effect on endothelial cord formation ([5]; 0.1 μg/ml) | also measured
CC(COS(=O)(=O)O)C(=O)CC[C@@H](C)[C@H]1CC[C@H]2[C@@H]3[C@H](O)C[C@H]4C[C@@H](NCCCNCCCCN)CC[C@]4(C)[C@H]3CC[C@]12C (single isomer, unassigned) [Compound 1360] | 32 (≈ 49.8 µM) | 128 (≈ 199 µM) | 8 (≈ 12.5 µM) |  |  |  |  |  | effect on blood circulating through embryonic vessels ([1]; within 20 minutes): exhibited a brighter red color; tadpole response [2]: Swelling and lysis of certain erythrocytes occurred, resulting in accumulation of nuclei within certain small vessels of the tail; tadpole response ([2]; listed as compound 1360): extensive vasocclusion occurred within 60 minutes throughout the tail
N.N.[Cl][Pt][Cl] [Cisplatin, reference compound] |  |  |  |  |  |  |  |  | hematological profile [3]: profound anemia by day 28
NC[C@H](O)c1ccc(O)c(O)c1 [noradrenaline, reference compound] |  |  |  |  |  |  |  |  | blood pressure after noradrenaline [4]: An almost immediate increase in blood pressure
COC(=O)CC[C@@H](C)[C@H]1CC[C@H]2[C@@H]3C[C@@H](O)[C@H]4C[C@H](NCCCNCCCCNCCCN)CC[C@]4(C)[C@H]3CC[C@]12C [Compound 465] | 4 (≈ 6.77 µM) | 32 (≈ 54.2 µM) | 2 to 4 (≈ 3.38 to 6.77 µM) | 128 (≈ 217 µM) | pharmacologic activity similar to that seen for FX 3 |  |  |  | 
CC(C)CCC[C@@H](C)[C@H]1CC[C@H]2[C@@H]3[C@H](O)C[C@H]4C[C@@H](NCCCNCCCCN)CC[C@]4(C)[C@H]3CC[C@]12C [Compound 371] | 2 (≈ 3.76 µM) | 64 (≈ 120 µM) | 4 (≈ 7.52 µM) | 64 (≈ 120 µM) | effects like those produced by compound 1436 |  |  |  | 
COC(=O)CC[C@@H](C)[C@H]1CC[C@H]2[C@@H]3C[C@@H](O)[C@H]4C[C@@H](NCCN)CC[C@]4(C)[C@H]3CC[C@]12C [Compound 432] | 2 to 4 (≈ 4.46 to 8.91 µM) | 8 to 16 (≈ 17.8 to 35.7 µM) | 1 (≈ 2.23 µM) | 64 (≈ 143 µM) | functionally similar to compound 1437 | - | - |  | 
CC(C)CCC[C@@H](C)[C@H]1CC[C@H]2[C@@H]3[C@H](O)C[C@H]4C[C@H](NCCCNCCCCN)CC[C@]4(C)[C@H]3CC[C@]12C [Compound 370] | 2 (≈ 3.76 µM) | 32 (≈ 60.2 µM) | 4 (≈ 7.52 µM) | 64 (≈ 120 µM) | pharmacologic activity similar to that seen for FX 3 |  |  |  | 
COC(=O)CC[C@@H](C)[C@H]1CC[C@H]2[C@@H]3CC[C@H]4C[C@@H](NCCCNCCCCNCCCN)CC[C@]4(C)[C@H]3CC[C@]12C [Compound 459] | 2 (≈ 3.48 µM) | 32 (≈ 55.7 µM) | 1 to 2 (≈ 1.74 to 3.48 µM) | 64 (≈ 111 µM) | pharmacologic activity similar to that seen for FX 3 |  |  |  | 
C[C@H](CCC(=O)O)[C@H]1CC[C@H]2[C@@H]3[C@H](O)C[C@@H]4C[C@H](NCCN)CC[C@]4(C)[C@H]3CC[C@]12C [Compound 414] | 64 (≈ 147 µM) | 64 (≈ 147 µM) | 32 (≈ 73.6 µM) | 64 (≈ 147 µM) | potencies comparable to that of Fraction 1 |  |  |  | 
C[C@H](CCC(=O)O)[C@H]1CC[C@H]2[C@@H]3[C@H](O)C[C@@H]4C[C@H](NCCCNCCCCNCCCN)CC[C@]4(C)[C@H]3CC[C@]12C [Compound 412] | 8 (≈ 13.9 µM) | 64 (≈ 111 µM) | 8 (≈ 13.9 µM) | 8 (≈ 13.9 µM) | pharmacologic activity similar to that seen for FX 3 | - | + | - | minimal effective concentration [5]: > 10 µg/mL
C[C@H](CCC(=O)O)[C@H]1CC[C@H]2[C@@H]3[C@H](O)C[C@@H]4C[C@@H](NCCCNCCCCNCCCN)CC[C@]4(C)[C@H]3CC[C@]12C [Compound 413] | 32 (≈ 55.5 µM) | 256 (≈ 444 µM) | 8 (≈ 13.9 µM) | 64 (≈ 111 µM) | effects like those produced by compound 1436 | - | + | - | minimal effective concentration [5]: > 10 µg/mL
C[C@H](CCC(=O)O)[C@H]1CC[C@H]2[C@@H]3CC[C@H]4C[C@@H](NCCCNCCCCN)CC[C@]4(C)[C@H]3CC[C@]12C [Compound 319] | 8 (≈ 15.9 µM) | 32 to 64 (≈ 63.5 to 127 µM) | 64 (≈ 127 µM) | 32 (≈ 63.5 µM) |  | + | + | + | effect on endothelial cord formation ([5]; 0.01 μg/ml): -; relative activity [1]: especially active; control of B16 melanoma (B16 melanoma): achieved control of B16 in C57B mice to an extent almost comparable to squalamine; CNS effects (specificity) (NHE): no CNS effects; potency as an NHE inhibitor vs squalamine (NHE): superior to squalamine; tadpole response [2]: common vascular occlusive effect
C[C@H](CCC(=O)O)[C@H]1CC[C@H]2[C@@H]3C[C@@H](O)[C@H]4C[C@@H](NCCN)CC[C@]4(C)[C@H]3CC[C@]12C [Compound 433] | > 256 | > 256 | > 256 | 128 (≈ 294 µM) | functionally similar to compound 1437 |  |  |  | 
COC(=O)CC[C@@H](C)[C@H]1CC[C@H]2[C@@H]3[C@H](O)C[C@@H]4C[C@H](NCCN)CC[C@]4(C)[C@H]3CC[C@]12C [Compound 410] | 16 (≈ 35.7 µM) | 16 (≈ 35.7 µM) | 16 (≈ 35.7 µM) | 32 (≈ 71.3 µM) | functionally similar to compound 1437 | + | + | - | minimal effective concentration [5]: 10 µg/mL
C[C@H](CCC(=O)O)[C@H]1CC[C@H]2[C@@H]3[C@H](O)C[C@@H]4C[C@@H](NCCN)CC[C@]4(C)[C@H]3CC[C@]12C [Compound 415] | 256 (≈ 589 µM) | 128 (≈ 294 µM) | 128 (≈ 294 µM) | 256 (≈ 589 µM) |  | - | +/T | - | minimal effective concentration [5]: > 10 µg/mL; relative activity [1]: especially active
COC(=O)CC[C@@H](C)[C@H]1CC[C@H]2[C@@H]3CC[C@@H]4C[C@H](NCCN)CC[C@]4(C)[C@H]3C[C@H](O)[C@]12C [Compound 416] | 32 (≈ 71.3 µM) | 8 (≈ 17.8 µM) | 8 (≈ 17.8 µM) | 16 to 32 (≈ 35.7 to 71.3 µM) | functionally similar to compound 1437 |  |  |  | 
